Test results reported in ChEMBL document CHEMBL1132897, “The basal SAR of a novel insulin receptor activator” (Bioorg Med Chem Lett, 2000).

Columns and labels:
[1] = target: Insulin receptor (Homo sapiens) (UniProt P06213); test: Ability to activate the insulin receptor compared to that of lead structure 1 expressed as X/1
[2] = target: Insulin receptor (Homo sapiens) (UniProt P06213); test: Percent activation of insulin receptor in CHO cells by 10 uM of compound; type: cell-based

Sequence of Insulin receptor (Homo sapiens) (P06213 28-758 limits assumed): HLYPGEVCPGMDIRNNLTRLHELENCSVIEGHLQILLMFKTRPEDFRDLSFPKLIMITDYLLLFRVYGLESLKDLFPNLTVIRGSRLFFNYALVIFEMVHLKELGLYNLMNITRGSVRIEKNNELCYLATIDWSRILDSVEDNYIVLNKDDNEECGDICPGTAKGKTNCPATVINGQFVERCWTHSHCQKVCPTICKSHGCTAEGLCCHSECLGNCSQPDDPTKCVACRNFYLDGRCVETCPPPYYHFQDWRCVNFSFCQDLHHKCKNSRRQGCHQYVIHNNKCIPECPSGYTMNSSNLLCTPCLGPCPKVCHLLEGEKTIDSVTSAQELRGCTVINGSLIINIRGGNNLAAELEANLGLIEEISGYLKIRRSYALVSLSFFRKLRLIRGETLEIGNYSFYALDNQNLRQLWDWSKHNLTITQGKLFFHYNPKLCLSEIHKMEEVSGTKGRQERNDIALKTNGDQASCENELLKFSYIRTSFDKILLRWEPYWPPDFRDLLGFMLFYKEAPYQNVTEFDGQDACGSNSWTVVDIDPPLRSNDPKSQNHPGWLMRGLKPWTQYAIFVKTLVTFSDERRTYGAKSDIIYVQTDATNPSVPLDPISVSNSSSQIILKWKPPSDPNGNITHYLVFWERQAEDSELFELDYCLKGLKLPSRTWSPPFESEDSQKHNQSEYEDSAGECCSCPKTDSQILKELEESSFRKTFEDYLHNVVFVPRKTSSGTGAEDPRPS
Sequence of Insulin receptor (Homo sapiens) (P06213 763-1382 limits assumed): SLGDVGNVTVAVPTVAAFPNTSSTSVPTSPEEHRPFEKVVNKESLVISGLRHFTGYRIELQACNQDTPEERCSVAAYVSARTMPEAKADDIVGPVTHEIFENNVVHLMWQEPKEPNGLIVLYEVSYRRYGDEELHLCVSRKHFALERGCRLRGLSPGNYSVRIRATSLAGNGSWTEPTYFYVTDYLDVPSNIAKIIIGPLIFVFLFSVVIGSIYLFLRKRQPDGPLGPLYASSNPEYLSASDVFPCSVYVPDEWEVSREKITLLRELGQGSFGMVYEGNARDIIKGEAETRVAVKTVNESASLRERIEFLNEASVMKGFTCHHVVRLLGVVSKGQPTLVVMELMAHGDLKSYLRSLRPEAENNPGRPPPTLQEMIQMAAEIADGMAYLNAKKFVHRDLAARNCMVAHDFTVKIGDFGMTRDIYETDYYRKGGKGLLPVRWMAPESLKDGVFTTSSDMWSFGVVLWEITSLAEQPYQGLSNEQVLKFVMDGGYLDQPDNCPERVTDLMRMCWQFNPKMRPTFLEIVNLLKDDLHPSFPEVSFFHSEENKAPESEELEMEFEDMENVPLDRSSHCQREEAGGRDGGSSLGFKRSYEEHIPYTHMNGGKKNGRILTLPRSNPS

SMILES | Relative activity [1] | Activation [2] [%]
C=CC(C)(C)c1[nH]c2ccccc2c1C1=C(O)C(O)=C(c2c[nH]c3c(CCC(C)(C)OC(=O)C(F)(F)F)cccc23)C(=O)C1=O | 0.64 | 48
C=CC(C)(C)c1c(C2=C(O)C(O)=C(c3cn(C)c4c(CC=C(C)C)cccc34)C(=O)C2=O)c2ccccc2n1C | 0.03 | 3
C=CC(C)(C)c1[nH]c2ccccc2c1C1=C(OS(=O)(=O)C(F)(F)F)C(=O)C(c2c[nH]c3c(CC=C(C)C)cccc23)=C(OS(=O)(=O)C(F)(F)F)C1=O | 0 | 0
CCC(C)(C)c1[nH]c2ccccc2c1C1=C(O)C(O)=C(c2c[nH]c3c(CCC(C)C)cccc23)C(=O)C1=O | 0.76 | 57
C=CC(C)(C)c1[nH]c2ccccc2c1C1=C(O)C(O)=C(c2c[nH]c3c(CCC(C)(C)O)cccc23)C(=O)C1=O | 0.47 | 35
C=CC(C)(C)c1[nH]c2ccccc2c1C1=C(OS(=O)(=O)C(F)(F)F)C(=O)C(c2c[nH]c3c(CC=C(C)C)cccc23)=C(N)C1=O | 0 | 0
C=CC(C)(C)c1[nH]c2ccccc2c1C1=C(O)C(N)=C(c2c[nH]c3c(CC=C(C)C)cccc23)C(=O)C1=O | 0.03 | 2
C=CC(C)(C)c1[nH]c2ccccc2c1C1=C(O)C(O)=C(c2cn(C)c3c(CC=C(C)C)cccc23)C(=O)C1=O | 0.32 | 24
C=CC(C)(C)c1[nH]c2ccccc2c1C1=C(O)C(O)=C(c2c[nH]c3c(CC(O)C(C)(C)O)cccc23)C(=O)C1=O (stereo not given) | 1 | 75
C=CC(C)(C)c1[nH]c2ccccc2c1C1=C(OC)C(=O)C(c2c[nH]c3c(CC=C(C)C)cccc23)=C(O)C1=O | 0.21 | 16
C=CC(C)(C)c1[nH]c2ccccc2c1C1=C(O)C(=N\C)/C(c2c[nH]c3c(CC=C(C)C)cccc23)=C(O)C/1=N/C | 0.01 | 1
C=CC(C)(C)c1[nH]c2ccccc2c1C1=C(O)C(O)=C(c2c[nH]c3c(CC=C(C)C)cccc23)C(=O)C1=O | 1 | 75
C=CC(C)(C)c1[nH]c2ccccc2c1C1=C(OC)C(=O)C(c2c[nH]c3c(CC=C(C)C)cccc23)=C(OC)C1=O | 0 | 0
CCC(C)(C)c1[nH]c2ccccc2c1C1=C(O)C(O)=C(c2c[nH]c3c(CC=C(C)C)cccc23)C(=O)C1=O | 1.09 | 82
C=CC(C)(C)c1c(C2=C(O)C(O)=C(c3c[nH]c4c(CCC(C)(C)O)cccc34)C(=O)C2=O)c2ccccc2n1C | 1.05 | 79
